Patent US5665738A, “Imidazole derivatives and processes for the preparation thereof” (Korea Research Institute of Chemical Technology, priority 1994, dated 1997)

The compounds below were run on angiotensin II receptor (assay: Angiotensin II receptor binding assay ([3H] angiotensin II displacement)). Details: 60 minutes at 25° C., pH 7.2, test concentration not given.
Description: The inventive compounds were tested to measure their angiotensin II receptor binding capacity as follows.
1. Angiotensin II receptor binding assay
In accordance with the procedure disclosed in Chiu, A. T. et al., Eur. J. Pharm., 157, 13 ([…])t a ligand marked with a radioistope was reacted with an angiotensin II receptor and the reactant was filtered with a glass fiber to remove unreacted ligand. After washing the filter, the amount of the remaining isotope was measured to determine the binding activity of the ligand, as described below in detail.
(i) Isolation of angiotensin II receptor
Sprague-Dawley rats and Wistar rats of 250 to 350 g (from The Korea Research Institute of Chemical Technology) were tested and the test procedures were carried out at 4° C., unless otherwise specified. Adrenal gland was separated from the Sprague-Dawley rats (liver, in the case of Wistar rats) into cortex and medulla. The separated adrenal cortex and medulla were washed with a sucrose buffer solution (0.2M sucrose, 1 mM EDTA, 10 mM Tris, pH 7.2) and homogenized in the same buffer solution by using a Teflon pestle and a Brinkmann homogenizer. The homogenates were centrifuged at 3,000× g for 10 minutes to remove precipitates and further centrifuged at 12,000× g for 13 minutes. The final supernatants were centrifuged at 102,000× g for 1 hour to obtain precipitates, which were washed with a Tris buffer solution (50 mM Tris, 5 mM MgCl2, pH 7.2) and re-centrifuged at 102,000× g for 1 hour. The resulting precipitates were immediately processed at the following step or stored at -70° C.
The precipitates were suspended in a Tris buffer solution. The amount of protein was determined by using a Bio-Rad DC protein analyzing kit and the protein concentration was adjusted to the amounts of: 0.2 to 0.3 mg/ml (Sprague-Dawley rat: adrenal cortex), 1.5 to 2.0 mg/ml (Sprague-Dawley rat: adrenal medulla), and 1.5 to 2.0 mg/ml (Wistar rat: liver). To the suspension, bovine serum albumin (BSA) was added to a concentration of 0.25 wt % and the resultant was immediately processed at the following step or stored at -70° C.
(ii) Measurement of angiotensin II receptor binding capacity
50 μl (based on ligand) of [^3 H] angiotensin II (NEN, NET-446) and 10 μl of each of the test compounds with various concentrations were added to the buffer solution (50 mM Tris (pH 7.2), 5 mM MgCl2, 0.25% BSA) to adjust the final volume to be 0.5 ml. Losartan (Dup 753), which is disclosed in EP No. 400,974 issued to Merck, was used as the control compound. 100 μl of the receptor suspension was added thereto and the resulting solution was reacted for 60 minutes while stirring in a water bath at 25° C. 3 ml of cold buffer solution for analysis was added to cease the reaction. The isotope which was bound to the receptor was isolated from the resultant by using Brandel Cell Harvester System with Whatman glass fiber GF/C. After washing the filter, the radioactivity of the filter was determined by using a liquid scintillation counter. Binding inhibition (%) of the test compound was calculated as follows:
Binding Inhibition (%)=[{(T-B)-(S-B)}/(T-B)]×100
wherein T is the radioactivity (cpm) of the reaction product untreated with the test compound, S is the radioactivity (cpm) of the reaction product treated with the test compound, and B is the radioactivity (cpm) of blank test.

Row | Binding Inhibition (%) | Structure (SMILES)
1 | 78.9 | CCCCc1nc(Cl)c(C(=O)c2ccc(CO)cn2)n1Cc1ccc(-c2ccccc2-c2nn[nH]n2)cc1 [Compound 28]
2 | 95.0 | CCCCc1nc(Cl)c(C(=O)c2cccc(C=O)[n+]2[O-])n1Cc1ccc(-c2ccccc2-c2nn[nH]n2)cc1 [Compound 2, {2-butyl-5-chloro-3-[(2'-(1H-tetrazol-5-yl)biphenyl-4-yl)methyl]-3H-imidazol-4-yl}(6-formyl-1-oxypyridin-2-yl)methanone]
3 | 99.9 | CCCCc1nc(Cl)c(C(=O)c2cccc(C[N+]([O-])(CC)CC)[n+]2[O-])n1Cc1ccc(-c2ccccc2-c2nn[nH]n2)cc1 [Compound 11, {2-butyl-5-chloro-3-[(2'-(1H-tetrazol-5-yl)biphenyl-4-yl)methyl]-3H-imidazol-4-yl}[6-((diethyl)(oxy)amino)methyl-1-oxypyridin-2-yl]methanone]
4 | 90.5 | CCCCc1nc(Cl)c(C(=O)c2cccc(CN(CC)CC)n2)n1Cc1ccc(-c2ccccc2-c2nnn[nH]2)cc1 [Compound 13, {2-butyl-5-chloro-3-[(2'-(1H-tetrazol-5-yl)biphenyl-4-yl)methyl]-3H-imidazol-4-yl}[6-((diethylamino)methyl)pyridin-2-yl]methanone]
5 | 90.4 | CCCCc1nc(Cl)c(C(=O)c2ccc(C=O)c(C)[n+]2[O-])n1Cc1ccc(-c2ccccc2-c2nn[nH]n2)cc1 [Compound 40, {2-butyl-5-chloro-3-[(2'-(1H-tetrazol-5-yl)biphenyl-4-yl)methyl]-3H-imidazol-4-yl}(5-formyl-6-methyl-1-oxypyridin-2-yl)methanone]
6 | 92.1 | CCCCc1nc(Cl)c(C(=O)c2cccc(C[N+]([O-])(CC)CC)n2)n1Cc1ccc(-c2ccccc2-c2nn[nH]n2)cc1 [Compound 14, {2-butyl-5-chloro-3-[(2'-(1H-tetrazol-5-yl)biphenyl-4-yl)methyl]-3H-imidazol-4-yl}[6-[((diethyl)(oxy)amino)methyl]pyridin-2-yl]methanone]
7 | 81.3 | CCCCc1nc(Cl)c(C(=O)c2ccc(C=O)cn2)n1Cc1ccc(-c2ccccc2-c2nn[nH]n2)cc1 [Compound 27, {2-butyl-5-chloro-3-[(2'-(1H-tetrazol-5-yl1)biphenyl-4-yl)methyl]-3H-imidazol-4-yl}(5-formylpyridin-2-yl)methanone]

Continued, compound first:

Row | Structure (SMILES) | Binding Inhibition (%)
8 | CCCCc1nc(Cl)c(C(O)c2cccc(CN(CC)CC)n2)n1Cc1ccc(-c2ccccc2-c2nnn[nH]2)cc1 (stereo not drawn) [Compound 12, {2-butyl-5-chloro-3-[(2'-(1H-tetrazol-5-yl)biphenyl-4-yl)methyl]-3H-imidazol-4-yl}[6-((diethylamino)methyl)pyridin-2-yl]methanol] | 63.2
9 | CCCCc1nc(Cl)c(C(O)c2ccc(C(OC)OC)cn2)n1Cc1ccc(-c2ccccc2-c2nnn[nH]2)cc1 (stereo not drawn) [Compound 25, {2-butyl-5-chloro-3-[(2'-(1H-tetrazol-5-yl)biphenyl-4-yl)methyl]-3H-imidazol-4-yl}[5-(dimethoxymethyl)pyridin-2-yl]methanol] | 87.8
10 | CCCCc1nc(Cl)c(C(O)c2cccc(Br)n2)n1Cc1ccc(-c2ccccc2-c2nnn[nH]2)cc1 (stereo not drawn) [Compound 18, {2-butyl-5-chloro-3-[(2'-(1H-tetrazol-5-yl)biphenyl-4-yl)methyl]-3H-imidazol-4-yl}(6-bromopyridin-2-yl)methanol] | 57.1
11 | CCCCc1nc(Cl)c(C(=O)c2ccc(C(OC)OC)cn2)n1Cc1ccc(-c2ccccc2-c2nnn[nH]2)cc1 [Compound 26, {2-butyl-5-chloro-3-[(2'-(1H-tetrazol-5-yl)biphenyl-4-yl)methyl]-3H-imidazol-4-yl}[5-(dimethoxymethyl)pyridin-2-yl]methanone] | 94.0
12 | CCCCc1nc(Cl)c(C(O)c2cccc(CN(CC)CC)[n+]2[O-])n1Cc1ccc(-c2ccccc2-c2nn[nH]n2)cc1 (stereo not drawn) [Compound 9, {2-butyl-5-chloro-3-[(2'-(1H-tetrazol-5-yl)biphenyl-4-yl)methyl]-3H-imidazol-4-yl}[6-(diethylamino)methyl-1-oxypyridin-2-yl]methanol] | 30.5
